From patent US20230030847A1, “ANTI-MICROBIAL SULFONAMIDE PHARMACEUTICAL COMPOSITIONS FOR EXTERNAL USE” (priority 2021, published 2023)

How the values were obtained:
[1] = test system: rats; experiment: single-dose oral gavage toxicity in rats; assay type: in vivo; settings: single gavage dose of liquid containing 20% BENZ, 5 g/kg body weight
Text: Five rats (Rattus norvegicus) weighing 244 to 272 grams were gavaged with a single dose of liquid containing 20% N-chloro-4-carboxybenzenesulfonamide (BENZ) at a dosage of 5 g/kg body weight.

[2] = test system: skin of rabbits; experiment: primary skin irritation according to ISO 10993-10, Part 10; assay type: in vivo, rabbit; settings: abraded skin, gauze patches treated with 20% BENZ for 24 hours, observed 1, 24, 48 and 72 hours after patch removal
Description: Next, three rabbits were used for evaluation of primary skin irritation according to ISO 10993-10, Part 10. Two wet gauze patches (25 mm×25 mm) treated with 20% BENZ were applied to the skin of each rabbit in different locations. Each application site was abraded with four parallel epidermal abrasions prior to application of the treated gauze patch. The treated gauze was secured in place for 24 hours, then removed. The skin was then observed for erythema and edema at 1, 24, 48, and 72 hours after patch removal.

[3] = test system: skin of guinea pigs; settings: guinea pig, in vivo
Description: Next, 10 guinea pigs were used to test for delayed dermal contact sensitization according to ISO 10993-10, Part 10. A wet gauze patch (25 mm×25 mm) treated with 20% BENZ was applied to the intact skin of each guinea pick for six hours (±30 minutes), three times a week, over a three-week period for a total of nine applications. After a two-week recovery period, the gauze patch was applied again. The skin was then observed for evidence of dermal reaction at 24 and 48 hours after patch removal. […] This test was performed a total of three times with different guinea pigs, and the same results were obtained each time.

[4] = test system: bovine corneas; experiment: bovine corneal opacity and permeability (BCOP) test for ocular irritation; settings: 0.75 mL of 20% BENZ solution, 10 minutes exposure, three bovine corneas
Description: A bovine corneal opacity and permeability (BCOP) test was performed to determine the potential for ocular irritation.
Each dissected cornea was mounted in a holder that separated into anterior and posterior chambers. The two chambers were filled with a MEM solution, and an opacitometer was used to measure the opacity of the cornea. Next, the MEM solution was removed from the anterior chamber, and the epithelium of three bovine corneas were exposed to 0.75 mL of a 20% BENZ solution for 10 minutes in a manner that covered the entire cornea. The two chambers were then rinsed and refilled with fresh MEM solution. The corneas were then incubated at 32° C. for two hours, and the two chambers were again rinsed and refilled with fresh MEM solution. The opacity was measured again. The MEM solution was then removed from the anterior chamber and the anterior chamber was filled with 1.0 mL of 0.4% sodium fluorescein in Dulbecco's phosphate-buffered saline. After 90 minutes, the fluid in the posterior chamber was removed and the amount of dye that passed through the cornea was measured as the optical density at 490 nm by spectrophotometer. The In Vitro Irritancy Score (IVIS) was calculated to be −0.67, which is a perfect score.

[5] = test system: Aspergillus brasiliensis; experiment: impregnated test swatch kill test; assay type: cell-based; settings: swatches impregnated with 2.5% BENZ; within 1 hour
Description: (§1) Test swatches which had been impregnated with 2.5% BENZ were exposed to Staphylococcus aureus, Pseudomonas aeruginosa, and Aspergillus brasiliensis. A stack of two swatches was placed in a petri dish and then inoculated with 1.000 mL of an inoculum for one of the microorganisms. Following inoculation, the petri dishes were sealed and placed in a plastic bag/container, then incubated at optimal conditions for the given microorganism. Swatches were harvested at 0, 10 minutes, 30 minutes, 1 hour, and 6 hours after inoculation. At harvesting, the swatch was transferred to a neutralization media, then vortex mixed for 1-2 minutes. The neutralization suspension was […] and plated for 18-24 hours for bacteria and 24-72 hours for fungi at optimal incubation conditions.

[6] = test system: Pseudomonas aeruginosa; experiment: impregnated test swatch kill test; assay type: cell-based; settings: swatches impregnated with 2.5% BENZ; within 10 minutes
Description: as §1

[7] = test system: Staphylococcus aureus; experiment: impregnated test swatch kill test; assay type: cell-based; settings: swatches impregnated with 2.5% BENZ; within 30 minutes
Description: as §1

[8] = test system: Candida auris; experiment: impregnated test swatch kill test; assay type: cell-based; settings: stack of four swatches impregnated with 2.5% BENZ; within 1 hour
[9] = test system: Rhinovirus 37, 151-1 strain, ATCC VR-1607; experiment: impregnated filter medium virucidal test (TCID50 in MRC-5 cells); assay type: cell-based; settings: filter medium impregnated with 2.5% BENZ; contact time 30 minutes, 24.7-24.9° C., 39.9-40.5% relative humidity
Description: Next, a filter medium impregnated with 2.5% BENZ was exposed to a 0.200 mL volume of Rhinovirus 37, 151-1 strain, ATCC VR-1607 for a contact time of 30 minutes at 24.7-24.9° C. and 39.9-40.5% relative humidity. After 30 minutes, the filter medium was transferred to a neutralization medium and vortexed for at least 15 seconds. A 0.1 mL aliquot was removed and a series of 10-fold dilutions was performed in 0.9 mL aliquots of test medium. Each dilution was inoculated into MRC-5 cells. Viral titer was then calculated.

[10] = test system: Influenza A virus, A/PR/8/34 strain, ATCC VR-1469; assay type: cell-based; settings: filter medium impregnated with 2.5% BENZ; similar experiment (contact time 30 minutes)
[11] = stability study of BENZ solution; assay type: physicochemical
Description: A stability study was conducted. A BENZ solution was stored for 14 days at 54° C. At Day 0, the samples contained an average of 20.26% BENZ. At Day 14, the samples contained an average of 19.97% BENZ.

For O=C(O)c1ccc(S(=O)(=O)NCl)cc1 [BENZ, N-chloro-4-carboxybenzenesulfonamide], the “survival after seven days” value [1] was “all five rats were still alive”, the erythema and edema [2] was “no erythema or edema observed” and the “delayed dermal contact sensitization” value [3] was “No evidence was found of delayed dermal contact sensitization”. The “In Vitro Irritancy Score (IVIS)” value [4] was −0.67, the kill [5] was 99.9% and the kill [6] was 99.999%. The kill [7] was 99.999%, the kill [8] was 99.998% and the “reduction in viral titer” value [9] was over 99.997%. The “reduction in viral titer” value [10] was over 100%, the “average BENZ content of samples” value ([11]; Day 0, BENZ solution) was 20.26% and the “average BENZ content of samples” value ([11]; Day 14, stored at 54° C.) was 19.97%.
